Assay results taken from ChEMBL document CHEMBL5649166, “RIP3 induces apoptosis independent of pronecrotic kinase activity” (Mol Cell, 2014).

Experiments:
[1] = target: Death-associated protein kinase 3 (Homo sapiens) (UniProt O43293); assay: Inhibition of human ZIPK/DAPK3 using KKLNRTLSFAEPG as substrate at 1 uM in presence of 32P-ATP by Hotspot assay relative to control; values are per cent of control
[2] = target: Ephrin type-A receptor 7 (Homo sapiens) (UniProt Q15375); assay: Inhibition of human EPHA7 using poly[Glu:Tyr] (4:1) as substrate at 1 uM in presence of 32P-ATP by Hotspot assay relative to control; values are per cent of control
Sequence of Ephrin type-A receptor 7 (Homo sapiens) (Q15375 28-998 limits assumed): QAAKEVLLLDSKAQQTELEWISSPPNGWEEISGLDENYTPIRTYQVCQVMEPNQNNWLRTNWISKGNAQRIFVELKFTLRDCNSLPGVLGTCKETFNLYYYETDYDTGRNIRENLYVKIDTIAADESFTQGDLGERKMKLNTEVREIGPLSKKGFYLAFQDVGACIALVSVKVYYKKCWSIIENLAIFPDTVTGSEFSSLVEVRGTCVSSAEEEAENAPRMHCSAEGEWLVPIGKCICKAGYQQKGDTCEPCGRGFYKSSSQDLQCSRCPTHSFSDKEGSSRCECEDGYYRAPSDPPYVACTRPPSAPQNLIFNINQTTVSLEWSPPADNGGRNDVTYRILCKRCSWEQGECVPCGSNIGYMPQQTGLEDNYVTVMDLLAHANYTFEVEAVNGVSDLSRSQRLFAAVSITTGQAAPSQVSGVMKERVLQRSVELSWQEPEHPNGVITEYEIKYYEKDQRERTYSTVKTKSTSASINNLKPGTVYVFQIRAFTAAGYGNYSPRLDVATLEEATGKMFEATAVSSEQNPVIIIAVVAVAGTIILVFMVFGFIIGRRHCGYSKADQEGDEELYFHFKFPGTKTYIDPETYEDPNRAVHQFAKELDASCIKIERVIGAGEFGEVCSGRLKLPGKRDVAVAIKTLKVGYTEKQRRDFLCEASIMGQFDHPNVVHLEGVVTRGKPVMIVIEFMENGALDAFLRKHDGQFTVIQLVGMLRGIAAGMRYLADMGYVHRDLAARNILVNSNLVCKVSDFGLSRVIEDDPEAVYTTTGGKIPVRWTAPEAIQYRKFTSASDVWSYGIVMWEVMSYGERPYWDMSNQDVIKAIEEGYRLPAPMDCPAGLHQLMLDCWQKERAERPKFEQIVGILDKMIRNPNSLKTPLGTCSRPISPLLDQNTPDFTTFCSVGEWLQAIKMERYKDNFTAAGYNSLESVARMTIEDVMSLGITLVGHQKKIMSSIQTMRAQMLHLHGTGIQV

[3] = target: Serine/threonine-protein kinase PAK 3 (Homo sapiens) (UniProt O75914); assay: Inhibition of human PAK3 using RRRLSFAEPG as substrate at 1 uM in presence of 32P-ATP by Hotspot assay relative to control; values are per cent of control
Sequence of Serine/threonine-protein kinase PAK 3 (Homo sapiens) (O75914 whole entry, looked up): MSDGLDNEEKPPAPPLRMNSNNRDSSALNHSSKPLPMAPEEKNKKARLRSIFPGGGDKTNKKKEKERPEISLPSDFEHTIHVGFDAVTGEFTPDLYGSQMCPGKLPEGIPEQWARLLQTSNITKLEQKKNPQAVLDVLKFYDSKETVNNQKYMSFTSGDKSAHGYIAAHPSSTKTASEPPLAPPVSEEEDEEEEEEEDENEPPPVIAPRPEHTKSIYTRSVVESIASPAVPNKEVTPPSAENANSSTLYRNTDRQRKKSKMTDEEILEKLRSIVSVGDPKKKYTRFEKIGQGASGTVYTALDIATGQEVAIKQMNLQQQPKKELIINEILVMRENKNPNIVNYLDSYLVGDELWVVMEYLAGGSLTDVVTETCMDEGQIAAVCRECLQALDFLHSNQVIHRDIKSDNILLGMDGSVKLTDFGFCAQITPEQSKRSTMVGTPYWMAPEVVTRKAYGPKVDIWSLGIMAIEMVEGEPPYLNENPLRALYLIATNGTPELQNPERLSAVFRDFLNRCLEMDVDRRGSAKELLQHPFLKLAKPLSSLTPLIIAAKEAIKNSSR

[4] = target: Macrophage-stimulating protein receptor (Homo sapiens) (UniProt Q04912); assay: Inhibition of human RON/MST1R using KKSRGDYMTMQIG as substrate at 1 uM in presence of 32P-ATP by Hotspot assay relative to control
Sequence of Macrophage-stimulating protein receptor (Homo sapiens) (Q04912 25-304 limits assumed): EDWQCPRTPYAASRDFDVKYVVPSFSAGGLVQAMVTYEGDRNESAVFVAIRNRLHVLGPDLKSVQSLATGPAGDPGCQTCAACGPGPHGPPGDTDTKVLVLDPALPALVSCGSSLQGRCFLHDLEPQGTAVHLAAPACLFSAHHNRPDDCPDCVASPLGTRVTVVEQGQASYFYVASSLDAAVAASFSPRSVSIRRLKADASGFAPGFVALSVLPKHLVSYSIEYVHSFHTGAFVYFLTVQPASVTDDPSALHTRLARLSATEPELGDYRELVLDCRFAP
Sequence of Macrophage-stimulating protein receptor (Homo sapiens) (Q04912 310-1400 limits assumed): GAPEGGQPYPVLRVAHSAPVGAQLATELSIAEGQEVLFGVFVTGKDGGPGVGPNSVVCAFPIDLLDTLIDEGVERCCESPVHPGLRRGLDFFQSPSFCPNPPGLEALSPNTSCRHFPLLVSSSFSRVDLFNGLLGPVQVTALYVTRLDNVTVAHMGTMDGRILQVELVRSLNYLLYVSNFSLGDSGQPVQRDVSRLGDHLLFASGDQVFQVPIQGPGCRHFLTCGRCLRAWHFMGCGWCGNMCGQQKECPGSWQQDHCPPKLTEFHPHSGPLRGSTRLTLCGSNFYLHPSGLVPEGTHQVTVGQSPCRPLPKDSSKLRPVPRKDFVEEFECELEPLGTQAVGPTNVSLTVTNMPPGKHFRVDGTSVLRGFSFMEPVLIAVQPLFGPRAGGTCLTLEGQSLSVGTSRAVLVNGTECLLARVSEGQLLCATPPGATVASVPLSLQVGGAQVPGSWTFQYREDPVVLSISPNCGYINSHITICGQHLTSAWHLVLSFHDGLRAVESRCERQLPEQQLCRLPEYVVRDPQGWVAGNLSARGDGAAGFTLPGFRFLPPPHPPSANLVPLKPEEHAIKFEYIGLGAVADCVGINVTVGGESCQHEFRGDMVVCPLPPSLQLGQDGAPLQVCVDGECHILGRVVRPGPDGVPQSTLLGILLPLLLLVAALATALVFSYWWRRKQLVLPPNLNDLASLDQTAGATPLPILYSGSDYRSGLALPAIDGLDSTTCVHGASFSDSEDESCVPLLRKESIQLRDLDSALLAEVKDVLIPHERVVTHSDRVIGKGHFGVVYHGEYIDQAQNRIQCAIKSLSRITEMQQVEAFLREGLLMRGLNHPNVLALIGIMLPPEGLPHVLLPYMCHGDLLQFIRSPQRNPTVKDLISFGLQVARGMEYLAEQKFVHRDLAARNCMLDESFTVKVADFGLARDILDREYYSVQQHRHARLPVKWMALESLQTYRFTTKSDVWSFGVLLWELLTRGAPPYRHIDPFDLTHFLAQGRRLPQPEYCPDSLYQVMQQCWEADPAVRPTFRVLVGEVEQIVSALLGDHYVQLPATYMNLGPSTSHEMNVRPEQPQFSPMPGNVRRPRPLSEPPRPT

[5] = target: T1, Serine/threonine-protein kinase Chk1 (Homo sapiens) (UniProt O14757); assay: Inhibition of human CHK1 using KKKVSRSGLYRSPSMPENLNRPR as substrate at 1 uM in presence of 32P-ATP by Hotspot assay relative to control; values are per cent of control
T1 sequence (whole entry): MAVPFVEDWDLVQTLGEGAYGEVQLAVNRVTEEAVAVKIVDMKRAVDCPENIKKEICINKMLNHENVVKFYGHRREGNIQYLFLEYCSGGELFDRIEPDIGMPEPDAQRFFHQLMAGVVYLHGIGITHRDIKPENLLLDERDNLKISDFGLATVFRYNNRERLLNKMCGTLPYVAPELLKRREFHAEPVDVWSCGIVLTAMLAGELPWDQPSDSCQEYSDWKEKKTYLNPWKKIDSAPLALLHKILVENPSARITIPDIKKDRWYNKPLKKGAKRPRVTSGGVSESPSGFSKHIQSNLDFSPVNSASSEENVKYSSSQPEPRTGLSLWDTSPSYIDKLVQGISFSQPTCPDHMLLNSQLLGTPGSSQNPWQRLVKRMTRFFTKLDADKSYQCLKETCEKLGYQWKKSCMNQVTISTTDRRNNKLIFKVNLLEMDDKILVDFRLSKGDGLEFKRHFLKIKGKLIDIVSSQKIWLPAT

[6] = target: T2, Serine/threonine-protein kinase 4 (Homo sapiens) (UniProt Q13043); assay: Inhibition of human MST1/STK4 using KKSRGDYMTMQIG as substrate at 1 uM in presence of 32P-ATP by Hotspot assay relative to control; values are per cent of control
T2 sequence (whole entry): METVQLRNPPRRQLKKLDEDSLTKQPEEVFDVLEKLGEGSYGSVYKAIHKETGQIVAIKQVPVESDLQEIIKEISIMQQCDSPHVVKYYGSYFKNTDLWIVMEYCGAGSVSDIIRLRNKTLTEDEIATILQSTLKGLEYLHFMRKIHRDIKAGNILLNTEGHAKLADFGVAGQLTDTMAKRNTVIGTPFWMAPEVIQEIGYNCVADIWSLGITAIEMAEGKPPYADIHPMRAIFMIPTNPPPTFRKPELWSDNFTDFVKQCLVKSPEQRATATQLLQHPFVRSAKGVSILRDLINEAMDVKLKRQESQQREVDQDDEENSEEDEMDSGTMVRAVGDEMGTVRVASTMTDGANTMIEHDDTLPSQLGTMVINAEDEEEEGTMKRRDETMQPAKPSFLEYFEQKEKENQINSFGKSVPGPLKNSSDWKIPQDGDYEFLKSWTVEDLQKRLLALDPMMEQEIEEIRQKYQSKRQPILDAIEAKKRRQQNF

[7] = target: Ribosomal protein S6 kinase alpha-5 (Homo sapiens) (UniProt O75582); assay: Inhibition of human MSK1/RPS6KA5 using GRPRTSSFAEG as substrate at 1 uM in presence of 32P-ATP by Hotspot assay relative to control; values are per cent of control
Sequence of Ribosomal protein S6 kinase alpha-5 (Homo sapiens) (O75582 whole entry, looked up): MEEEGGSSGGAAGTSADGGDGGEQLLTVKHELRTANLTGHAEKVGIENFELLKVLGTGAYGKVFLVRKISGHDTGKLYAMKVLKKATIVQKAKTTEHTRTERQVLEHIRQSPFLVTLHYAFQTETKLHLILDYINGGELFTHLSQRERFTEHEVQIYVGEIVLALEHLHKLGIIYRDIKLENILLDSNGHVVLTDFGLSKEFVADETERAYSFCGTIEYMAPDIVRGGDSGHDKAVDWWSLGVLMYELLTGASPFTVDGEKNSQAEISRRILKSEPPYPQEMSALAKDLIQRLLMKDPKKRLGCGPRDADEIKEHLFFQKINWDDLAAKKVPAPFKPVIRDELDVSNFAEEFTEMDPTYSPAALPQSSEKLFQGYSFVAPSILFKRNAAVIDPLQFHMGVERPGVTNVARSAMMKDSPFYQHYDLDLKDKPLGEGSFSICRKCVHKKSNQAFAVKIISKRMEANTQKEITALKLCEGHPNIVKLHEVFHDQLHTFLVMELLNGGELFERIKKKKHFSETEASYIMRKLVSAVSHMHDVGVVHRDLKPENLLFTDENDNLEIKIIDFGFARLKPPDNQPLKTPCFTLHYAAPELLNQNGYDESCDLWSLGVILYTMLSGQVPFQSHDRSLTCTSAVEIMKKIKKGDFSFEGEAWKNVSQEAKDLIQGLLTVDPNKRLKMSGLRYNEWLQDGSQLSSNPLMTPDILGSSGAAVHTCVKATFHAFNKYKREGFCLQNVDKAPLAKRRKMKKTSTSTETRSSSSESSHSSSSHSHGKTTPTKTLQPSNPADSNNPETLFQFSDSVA

[8] = target: SRSF protein kinase 3 (Homo sapiens) (UniProt Q9UPE1); assay: Inhibition of human MSSK1/STK23 using GRSRSRSRSR as substrate at 1 uM in presence of 32P-ATP by Hotspot assay relative to control; values are per cent of control
Sequence of SRSF protein kinase 3 (Homo sapiens) (Q9UPE1 whole entry): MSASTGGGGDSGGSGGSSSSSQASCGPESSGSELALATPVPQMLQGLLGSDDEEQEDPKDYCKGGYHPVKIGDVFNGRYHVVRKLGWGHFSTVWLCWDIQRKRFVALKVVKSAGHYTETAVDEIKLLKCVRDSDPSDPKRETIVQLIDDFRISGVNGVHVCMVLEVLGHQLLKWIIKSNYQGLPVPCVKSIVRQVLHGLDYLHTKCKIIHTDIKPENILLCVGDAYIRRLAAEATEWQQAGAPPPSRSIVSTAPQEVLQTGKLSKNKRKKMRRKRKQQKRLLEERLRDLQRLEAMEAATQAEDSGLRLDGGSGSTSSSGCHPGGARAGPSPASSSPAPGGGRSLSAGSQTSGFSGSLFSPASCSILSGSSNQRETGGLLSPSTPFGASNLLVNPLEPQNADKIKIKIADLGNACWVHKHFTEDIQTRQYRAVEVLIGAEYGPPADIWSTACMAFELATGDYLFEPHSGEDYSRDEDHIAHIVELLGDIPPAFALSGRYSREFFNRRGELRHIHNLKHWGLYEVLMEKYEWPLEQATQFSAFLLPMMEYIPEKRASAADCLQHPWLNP

[9] = target: T3, Serine/threonine-protein kinase D2 (Homo sapiens) (UniProt Q9BZL6); assay: Residual activity of human PKD2/PRKD2 using KKLNRTLSVA as substrate at 1 uM in presence of 32P-ATP by Hotspot assay relative to control
T3 sequence (whole entry): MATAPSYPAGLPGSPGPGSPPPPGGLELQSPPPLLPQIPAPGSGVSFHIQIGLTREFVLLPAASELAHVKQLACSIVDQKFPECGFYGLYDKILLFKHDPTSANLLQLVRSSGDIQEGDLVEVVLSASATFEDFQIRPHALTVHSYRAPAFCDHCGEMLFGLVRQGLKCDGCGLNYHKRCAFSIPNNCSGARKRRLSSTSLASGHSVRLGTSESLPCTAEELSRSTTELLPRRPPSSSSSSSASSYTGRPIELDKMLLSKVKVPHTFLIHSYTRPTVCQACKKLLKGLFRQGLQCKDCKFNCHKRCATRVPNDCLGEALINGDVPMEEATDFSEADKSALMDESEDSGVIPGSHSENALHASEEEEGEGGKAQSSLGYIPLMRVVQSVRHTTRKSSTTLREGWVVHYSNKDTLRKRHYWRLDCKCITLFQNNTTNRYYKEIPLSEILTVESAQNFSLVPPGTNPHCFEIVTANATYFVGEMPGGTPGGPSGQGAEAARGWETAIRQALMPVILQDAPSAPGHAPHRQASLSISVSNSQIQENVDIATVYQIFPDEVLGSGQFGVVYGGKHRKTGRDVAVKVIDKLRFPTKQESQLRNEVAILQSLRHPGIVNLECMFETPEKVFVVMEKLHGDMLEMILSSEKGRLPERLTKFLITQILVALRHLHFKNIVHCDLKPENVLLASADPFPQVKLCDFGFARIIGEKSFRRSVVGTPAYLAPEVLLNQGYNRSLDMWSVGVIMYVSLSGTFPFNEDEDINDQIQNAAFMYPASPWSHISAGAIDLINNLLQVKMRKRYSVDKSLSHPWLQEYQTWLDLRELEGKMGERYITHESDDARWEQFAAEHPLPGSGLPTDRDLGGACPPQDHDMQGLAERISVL

Sequence of Death-associated protein kinase 3 (Homo sapiens) (O43293 whole entry, looked up): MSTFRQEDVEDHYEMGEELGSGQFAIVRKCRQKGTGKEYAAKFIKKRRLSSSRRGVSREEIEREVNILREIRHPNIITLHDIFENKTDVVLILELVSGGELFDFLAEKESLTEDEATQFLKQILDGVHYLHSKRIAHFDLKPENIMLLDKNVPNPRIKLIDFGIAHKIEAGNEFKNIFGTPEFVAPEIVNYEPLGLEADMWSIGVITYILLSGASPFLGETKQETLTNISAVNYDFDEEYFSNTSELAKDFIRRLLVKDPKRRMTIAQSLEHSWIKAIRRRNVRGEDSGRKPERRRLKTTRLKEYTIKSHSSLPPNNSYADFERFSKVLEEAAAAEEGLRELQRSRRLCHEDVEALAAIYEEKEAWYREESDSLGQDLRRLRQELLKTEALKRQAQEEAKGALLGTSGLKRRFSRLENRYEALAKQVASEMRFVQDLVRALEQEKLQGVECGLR

Row | SMILES | residual activity [1] | residual activity [2] | residual activity [3] | inhibition [4] | residual activity [5] | residual activity [6] | residual activity [7] | residual activity [8] | residual activity [9]
1 | Cc1cc(-c2cnc(N)c3c(-c4ccc5scnc5c4)csc23)n(C)n1 | 91.3% | 101% | 96.6% | 91.3% | 100% | 96.9% | 97.4% | 93.7% | 39.4%
2 | CNC(=O)c1ccc2c(c1)ncn2-c1ccc(CC(=O)OC(C)(C)C)cc1 | 96.8% | 87.8% | 105% | 97.8% | 84.6% | 95.3% | 89.4% | 101% | 99%
3 | CC(C)S(=O)(=O)c1ccc2nccc(Nc3ccc4scnc4c3)c2c1 | 102% | 90.8% | 97.8% | 56.6% | 100% | 98.5% | 97.9% | 102% | 101%
